The values below come from a melting point compilation (Tetko et al.; mined from patent text by program, amines drawn as free bases though some values may be those of a salt).

As for `CC(C)(C(=O)c1ccccc1)S(=O)(=O)c1ccccc1`, the melting point (commonly the temperature, or range, at which the solid turns liquid) came out at 70 °C.

The molecule `CCCCCCCCOc1cc(-c2cccc(C(F)(F)F)c2)c(OCC(=O)O)c(-c2cccc(C(F)(F)F)c2)c1` yielded a melting point of 75 to 77 °C.

As to `COc1ccc2c(c1)C13CCN(C)C(C2)C1(OC(C)=O)CCOC3` (centres undefined), the melting point fell in the range of 161 to 163 °C.

`CC(CS(=O)(=O)c1ccc(-c2ccc(C(F)(F)F)cc2)cc1)N(O)C=O` (centres undefined) returned a melting point of 175 °C.

The molecule `CCN1C(=O)N(c2cc(Cl)cc(Cl)c2)C(=O)[C@]12CN(S(=O)(=O)c1cccc(C(=O)O)c1)C[C@H]2c1ccc(C#N)cc1` (relative stereo) had a melting point of 145 °C.

Turning to `CCCc1nc2c(C)cc(-c3nc4ccccc4n3C)cc2n1Cc1ccc(-c2ccccc2S(=O)(=O)O)cc1`, the melting point is 307 to 310 °C.

The molecule `CCc1[nH]n(C2CCCC2)c2nc(-c3ccnc4ccccc34)nc(=O)c1-2` showed a melting point of 205 to 206 °C.

Regarding `CNC(=N)N(C)Cc1ccc(C)cc1`, the melting point fell in the range of 118 to 125 °C.

Molecule `Cc1c(-c2ccc(Cl)c(Cl)c2)n(-c2ccccc2)c(-c2ccccc2)cc1=O` yielded a melting point of 188 to 191 °C.

`Cc1cnc(N(C)C)nc1-c1ccncc1` came in with a melting point of 114 to 116 °C.

On to `O=C1N=C2C(=O)SC=C2N1`, for which the melting point lay in the range of 177 to 180 °C.

Consider `COc1ccc(COc2ccc(-c3ccc(C#N)c(=O)[nH]3)cc2OC)cc1OC`, for which the melting point is 220 to 221 °C.

In turn, `C[Si](C)(C)C#Cc1cccc2c1C1(c3ccccc3-c3ccccc31)c1ccccc1-2` displayed a melting point of 205 to 206 °C.

The molecule `CCCCc1nc2ccc(NC(=O)C3CCCCC3C(=O)O)cc2n1Cc1ccc(-c2ccccc2C(=O)O)cc1` (centres undefined) gave a melting point of 186 to 188 °C.

Consider `CCCCCCCNC(=O)N(C)c1cccc(-c2ccc(C=C(OC)C(=O)O)cc2OCCCC)c1`, for which the melting point worked out at 99 °C.

As for `COc1ccc(CSc2c(O)cc(-c3ccccc3)oc2=O)cc1`, the melting point was 168 to 170 °C.

For the molecule `C=CCNC(=O)NNC(=O)c1cccnc1`, the melting point lay in the range of 165 to 167 °C.

`O=C1CCCc2cc(F)cc(Sc3ccccc3)c21` had a melting point of 112 to 113 °C.

`CC(C)CN(CC(C)C)C(=O)c1c([N+](=O)[O-])cccc1[N+](=O)[O-]` displayed a melting point of 97 to 99 °C.

Take `CCCC(CCC)C(=O)NC(C)C(=O)OC` (centres undefined): the melting point is 72 to 73 °C.

Take `Cc1ccccc1-c1c(C#N)nn(-c2c(Cl)cc(C(F)(F)F)cc2Cl)c1N`: the melting point fell in the range of 199 to 202 °C.

In turn, `CCOC(=O)c1cc(-n2c(OC)nc(C(F)(F)F)c(F)c2=O)c(F)cc1Cl` registered a melting point of 69 to 72 °C.

`O=S(=O)(F)C=CNc1ccc(C(F)(F)F)cc1`: the melting point was 71 to 73 °C.

As for `CS(=O)(=O)N1CCN(C(CC2Cc3cc(C(N)=O)ccc3O2)C(=O)NO)CC1` (centres undefined), the melting point is 185 °C.

`CCC(=CC(CNC(=O)c1ccc(C)nc1)=NO)C(C)[N+](=O)[O-]` (centres undefined) yielded a melting point of 150 to 151 °C.

On to `Cn1c(=O)[nH]c(=O)c2c1ncn2CC(C)(C)O`, for which the melting point lay within 268 to 269 °C.

Regarding `CCCCCCCCCCCCCSc1nnc(NC(=O)Nc2c(C(C)C)cccc2C(C)C)[nH]1`, the melting point lay within 131 to 135 °C.

`COc1ccc(C)cc1NC(=O)Nc1ccc(N2CCN(c3ncccn3)CC2)cc1` registered a melting point of 220 to 221 °C.

The molecule `CCCCCCCCCCCCCCCCCCS(=O)(=O)N[C@H]1CCCNC(=O)C1` came in with a melting point of 99 to 100 °C.

In the case of `N#Cc1c(Cc2ccccc2)nn(C2CCCC2)c1NC(=O)Cc1ccccc1`, the melting point was in the range of 166 to 168 °C.

For `CCOC(=S)NC1(N=NC(C)(C)C)CCCCC1`, the melting point was in the range of 57 to 62 °C.

Consider `CCC(C)(CC)N=C(NC#N)Nc1cc(Cl)cc(Cl)c1`, for which the melting point was in the range of 148 to 150 °C.

In the case of `CS(=O)C1C=Nc2cc(F)ccc2C1=O` (centres undefined), the melting point was found to be 265 °C.

For `C#CCn1cc(C(=O)OCC)c(C(F)(F)F)c1`, the melting point stood at 58 °C.

As to `CCOC(=O)C(Cc1ccc(OCCN2CCC(C)(C)c3cc(C(=O)c4ccccc4)ccc32)cc1)OCC(F)(F)F` (centres undefined), the melting point is 56 to 58 °C.

On to `CC(C)(C)c1cc(-c2nc(CS(C)(=O)=O)no2)cc(C(C)(C)C)c1O`, for which the melting point was 153 to 155 °C.

`OC1(C2(Cl)CC2)Cc2ncnn2C(CC(Cl)(Cl)Cl)C1` (centres undefined) yielded a melting point of 153 to 154 °C.

For the molecule `CCN(CC)C(=O)c1cc(-c2ccc(OC)cc2)ccc1OC`, the melting point was in the range of 58 to 60 °C.

For `COc1cc(OC)nc(Oc2ccc3ccccc3c2C(=O)O)n1`, the melting point was 187 to 189 °C.

Regarding `O=C(Nc1ccccc1)c1nc(-c2ccc(Cl)cc2Cl)c(-c2ccc(Cl)cc2)s1`, the melting point was 167 to 168 °C.

Take `CCCCc1oc2ccccc2c1C(=O)N(C)Cc1ccc2cc(O)ccc2c1`: the melting point lay in the range of 110 to 113 °C.

On to `COc1cc2c(cc1OC)C(C)(CCCCl)OCC2` (centres undefined), for which the melting point lay in the range of 77 to 79 °C.

The molecule `Cc1c(O)c(=O)ccn1CCO` came in with a melting point of 164 to 165 °C.

Molecule `COc1cc(N)c(Cl)cc1C(=O)NCC1CCN(CCCC(=O)c2ccccc2)CC1` came in with a melting point of 148 to 150 °C.

`CCc1[nH]n(-c2c(Cl)cc(Cl)cc2Cl)c2nc(Cc3ccc(-c4ccc(OC)cc4)cc3)nc(=O)c1-2`: the melting point was 275 to 277 °C.

`O=C(NCCC1CCN(c2noc3cc(Cl)ccc23)CC1)c1nsc2ccccc12` showed a melting point of 132 to 134 °C.

As to `COc1ccc(-c2ccc(C(C)=O)cc2)cc1F`, the melting point fell in the range of 149 to 150 °C.

`Cc1oc(-c2ccccc2)nc1COc1cccc(CCl)c1`: the melting point was in the range of 79 to 80 °C.

In turn, `O=C(NC1CCCc2ccccc21)c1ccc2cnccc2n1` (centres undefined) yielded a melting point of 164 to 165 °C.

Molecule `COC(=O)c1nscc1S(=O)(=O)Cl` returned a melting point of 42 to 46 °C.

With `CCOC(=O)c1c(C)cc2nc(C(C)C)n(-c3ccccc3Cl)c(=O)c2c1C`, the melting point lay in the range of 115 to 116 °C.

With `CCOC(=O)CCCCC(=O)c1c(C)cc(C)c(C)c1O`, the melting point fell in the range of 72 to 73 °C.

The molecule `Cc1cc(SCc2ccc(-c3ccc(C(F)(F)F)cn3)cc2)c2c(c1OCC(=O)O)CCC2` displayed a melting point of 186 °C.

Molecule `CC1(CNC=O)CC(=O)c2ccccc2O1` (centres undefined) showed a melting point of 96 to 98 °C.

`CCC(=O)c1cc(Cl)c(Cl)c2c1OCC(CO)O2` (centres undefined): the melting point is 121 to 123 °C.

The molecule `CCCOC(=O)C1=C(C)NC(CO)=C(C(=O)OC)C1c1ccccc1C#N` (centres undefined) returned a melting point of 149 to 152 °C.

The molecule `CN1CC(=O)Nc2ccc([N+](=O)[O-])cc2C1=O` displayed a melting point of 250 to 252 °C.

Molecule `C#CCN(Cc1cc2c(=O)n(C)c(CN(CC)CC)nc2cc1Cl)c1ccc(C(=O)OC(C)(C)C)cc1` displayed a melting point of 112 to 113 °C.

On to `c1ccc(CNc2c(-c3ccccc3)sc3ccccc23)cc1`, for which the melting point was in the range of 52 to 53 °C.

Turning to `N#CCOc1nsc2ccc(-n3c(=O)cc(C(F)(F)F)[nH]c3=O)cc12`, the melting point lay within 254 to 258 °C.

For `Cc1cnc2c(C(=O)NC=NO)c(Cl)ccc2c1`, the melting point lay in the range of 235 to 238 °C.

Molecule `CCCCCCc1cc(-c2cccs2)n[nH]1` gave a melting point of 53 to 55 °C.

Molecule `Nc1nc(-c2ccncc2)nc2[nH]c(S)nc12` gave a melting point above 330 °C.

In turn, `CCCCCCCCCCCCn1nnnc1NC(=O)Nc1c(C(C)C)cccc1C(C)C` gave a melting point of 80 to 88 °C.

Take `COc1ccc(C[C@H](C[C@H](O)[C@H](Cc2ccccc2)NC(=O)OC(C)(C)C)C(=O)O)c(OC)c1`: the melting point was 144 to 145 °C.

`N#CN=C(NCCSCc1ncccc1Br)NCCSCc1ncccc1Br`: the melting point fell in the range of 118 to 119 °C.

`OCC1Cc2c([nH]c3ccccc23)CN1` (centres undefined): the melting point was in the range of 191 to 193 °C.

Regarding `O=C(c1ccc2c(c1)OC(F)(F)C(=O)N2)N1CCOCC1`, the melting point lay within 214 to 217 °C.

`CCCCCCCC[C@H](C)C(=O)Oc1ccc(C(=O)O)cc1` registered a melting point of 92.5 to 96.5 °C.

The molecule `CON(C(=O)Cc1nc2ccc(Cl)cc2o1)c1ccccc1` yielded a melting point of 139 °C.

With `CC(C)n1c2cc(C(F)(F)F)ccc2c2oc(C(=O)Cl)cc21`, the melting point was 128 to 129 °C.

`Cc1cnc2c(-c3nc[nH]n3)c(Cl)ccc2c1` returned a melting point of 274 to 276 °C.

Turning to `COc1cc(Nc2c(C#N)cnc3cc(-c4cc5ccccc5s4)ccc23)c(Cl)cc1Cl`, the melting point was 269 to 270 °C.

`CCN1C(=O)C(C)(C)C(=O)N(C)c2cc(CN(CCn3ccc4oc(C)cc4c3=O)Cc3ccnn3C)ccc21` returned a melting point of 128 to 131 °C.

Molecule `COc1ccc(-c2cc(=S)n(Cc3ccncc3)nc2-c2ccc(OC)cc2)cc1` showed a melting point of 160 °C.

As for `COc1ccc(-c2cc(COc3cccc4cc(NS(=O)(=O)C(F)(F)F)ccc34)ccc2F)cc1`, the melting point lay in the range of 132 to 133 °C.

`O=c1[nH]c2ccc(S(=O)CCN3CCC(Cc4ccc(F)cc4F)CC3)cc2o1` (centres undefined) had a melting point of 166 to 168 °C.

`COc1ccc(/C=C/c2nc3c([nH]2)c(=O)n(C)c(=O)n3C)c(C)c1C` gave a melting point above 275 °C.

With `CCCNC(=O)C1(CCCCc2ccc([N+](=O)[O-])cc2)c2ccccc2-c2ccccc21`, the melting point is 109 to 110 °C.

In the case of `CN(CCCCc1ccccc1)CCCc1ccccc1`, the melting point fell in the range of 81 to 83 °C.

In turn, `COC(=O)CCCc1cc2nc(C)ccc2n1S(=O)(=O)c1ccccc1` had a melting point of 91 to 94 °C.

For `N=C(NO)c1ccc(-c2ccc(-c3ccc(C(=N)NO)cn3)o2)nc1`, the melting point lay in the range of 272 to 274 °C.

In turn, `COc1cc2c(Nc3ccc(Cl)cc3F)ncnc2cc1OCCCC(=O)N1CCOCC1` gave a melting point of 216 to 217 °C.

As for `CCCCCCSC1c2cccc(O)c2C(=O)c2c(O)cccc21`, the melting point lay in the range of 49 to 50 °C.

Consider `COC(=O)COc1ccc(C(=O)CCN2CCN(c3ccncc3)CC2)cc1`, for which the melting point fell in the range of 93 to 95 °C.

Regarding `CC(C)CC(=O)Nc1cccc(-c2ccnc3c(-c4ccc(CO)cc4)cnn23)c1`, the melting point lay within 170 to 172 °C.

`COc1ccc(-c2cn3ccc4ccccc4c3n2)cc1`: the melting point fell in the range of 177 to 179 °C.

On to `Cc1nn(-c2ccccn2)c2[nH]c3ccc(N(C)C)cc3c(=O)c12`, for which the melting point lay in the range of 171 to 173 °C.

Take `CCOC(=O)COc1ccc(C=O)cc1OC`: the melting point was in the range of 56 to 59 °C.
